The source of these data is US20070166710A1, “Methods for inhibiting adipogenesis and for treating type 2 diabetes” (priority 2003, published 2007).

The subject of one series is Foxa-2. As to the kind of experiment: Intracellular localization of Foxa-2 in hepatocytes after insulin injection into the portal vein. The format is in vivo, mice. As to the method:
Cryosections of livers ([…]) were fixed for 15 min at RT with 4% paraformaldehyde. For immunofluorescent detection of Foxa-2 or HA-Foxa-2, fixed sections were incubated with either anti-Foxa-2 antibody (1:100) or anti-HA antibody (Convance) (1:1000) overnight at 4° C. After washing, sections were treated with secondary antibody linked to Alexa Fluor 488 (Molecular Probes). For nuclear counterstaining, TOPRO-3 dye (Molecular Probes) was used. Immunofluorescent staining was visualized using laser-scanning micrsocopy.
The role of Foxa-2 in the regulation of liver gene expression by nutritional status was examined by determining the intracellular localization of Foxa-2 in fasted and fed mice by Western blotting of Foxa-2 in liver nuclear extracts and by immunohistochemistry. In fed mice, nuclear Foxa-2 levels were low, whereas after an overnight fast Foxa-2 expression in liver nuclei increased ^˜4 to 5-fold (FIG. 15a). […] Strong Foxa-2 immunostaining was detected in hepatocyte nuclei of control (PBS) mice. […] Foxa-2 protein levels were measured in liver nuclei of C57/B6 mice that were perfused with a buffer containing a range of insulin concentrations that included fasting and postprandial insulin levels (0.2 and 4.0 ng/ml, respectively). […] Foxa-2 levels were determined by immunoblotting. […]

The next series has as its system Foxa-2 activity. As to the kind of experiment: Transactivation assay, HepG2 cells transfected with Foxa-2 and pPepck-Luc or p6xCdx-TkLuc. The class given is cell-based, rat. Conditions: insulin 100 nM for the duration of transfection.
The next series relates to Foxa-2 expression. As to the kind of experiment: Foxa-2 expression in primary adipocytes from ob/ob mice, semiquantitative RT-PCR. The class given is cell-based. Conditions: insulin 100 μM as printed, prolonged culturing (24 and 60 hours). As to the method:
Total RNA was extracted from cells and EBs using Trizol following manufacturer's instructions (Life Technologies, Inc.). […] The cDNAs provided templates for polymerase chain reactions (PCRs) using specific primers at annealing temperatures ranging between 60 and 65° C. in the presence of dNTPs, [α^-32P]dCTP, and Taq DNA polymerase. […] Primary adipocytes were isolated as described by Rodbell (1964) J. Biol. Chem. 239:375-380. […] (1995) J. Cell. Biochem. 58:435-463. The reaction was stopped by spinning through dinonyl […] oil and the radioactivity quantified by scintillation counting. […] (1995) Am. J. Physiol. 268:[…]-[…]. Fatty acid de novo synthesis was analyzed by saponification of total lipids as described by […] et al. (1978) J. […] Incorporation into lipid glycerol was calculated by subtracting fatty acid radioactive label from total lipid radioactive label. Primary adipocytes were isolated from ob/ob mice and cultured in MEM medium (control) or in the presence of insulin (100 μM; 24 hours and 60 hours, respectively) or rosiglitazone (50 μM), WY14,643 (100 μM), dexamethason (1 μM), leptin (100 ng/ml), TNF-α, (5 ng/ml), adiponectin (500 ng/ml) and glucagons (100 nM) for 60 hours. Gene expression was measured by semiquantitative RT-PCR. Steady state mRNA levels of Hprt were used as a control and indicate that each lane contains similar amounts of rnRNA. Reactions were also assayed in the absence of reverse transcriptase, showing that mRNA was not contaminated with genomic DNA.

A further series concerns Shp. As to the kind of experiment: Shp expression in primary adipocytes of lean mice cultured with insulin. The class given is cell-based. The note with it: insulin 50 nM, 60 hours.

Description for Foxa-2 activity: Transfections and Transactivation assay. HepG2 cells were grown to 60-70% confluence in a 24-well dish and transfected with 50 ng of each reporter gene (p6xCdx-TkLuc or pPEPCK-Luc), pCMV-β-Gal as internal reference and the expression vectors for wildtype or mutant Foxa-1 and Foxa-2 and human Akt1/Akt2 using the transfection reagent Fugene6 (Roche). Cells were grown for 48 hours and luciferase activity was measured using the Luciferase Detection System (Promega). Luciferase was normalized for transfection efficiency by β-galactosidase activity.
To analyze whether Foxa-2 activity is regulated by insulin, HepG2 cells were transfected with a Foxa-2 expression vector and either plasmid pPepck-Luc or p6xCdx-TkLuc that contain a 621 bp promoter framnent of the human PEPCK gene or six Foxa-2 binding sites of the Cdx-2 gene upstream of a minimal promoter and the luciferase gene, respectively.

Regarding “insulin: Insulin was from Sigma; hormone used as stimulus”, the “nuclei from which Foxa-2 was excluded” value in the series with Foxa-2 (20 ng/ml insulin into the portal vein of fasted mice, after 5 minutes) is listed as about 80%. In addition, the “localization of Foxa-2 in hepatocytes” value in the series with Foxa-2 (15 minutes after insulin administration) is recorded as “located exclusively in the cytoplasm of all hepatocytes”. Also, the “Foxa-2 activity (luciferase reporter)” value with Foxa-2 activity is “significantly decreased”. Moreover, in the series on Foxa-2 expression, the Foxa-2 expression result is given as “strong increase”. Further, the “Expression of Shp” value in the series on Shp is “induced”.
